# Assay results as given in patent US20240122865A1, “Methods of Protecting RNA” (Pfizer Inc., priority 2021, published 2024).
# Legend:
# Type in all cases: biochemical, Trichoderma atroviride
# Chi18 model RNA [1] = test: TapeStation Assay, Chi18 model RNA; set-up: Conc. chi18#1 / Conc. chi18#2: unit not given here; settings: for % Control N = 1 / % Control N = 2 / % Control Avg.: Chi18 RNA, 20 mM amino acids, 50 mM CAPS pH 11, 50° C. 15 min; for % Control N = 1 / % Control N = 2: vs Time 0; for % Control Avg.: vs Time 0, Avg N=2; for Conc. chi18#1: 20 mM amino acids in 50 mM CAPS pH 11, run #1
# Protocol: (§1) These assays were performed with amino acids and compared to a no-degradation baseline control to gauge degree of protection imparted by the amino acid. Multiple functional assay approaches were used where differing endpoints were measured including a droplet digital PCR (ddPCR) assay where intact RNA sequence was quantitated, a size exclusion base hydrolysis degradation assay that used a size exclusion column to determine the degree of degradation occurring to an mRNA construct, and finally, a TapeStation assay that utilizes capillary electrophoresis and optical detection to measure intact RNA. […] Affinity selection by mass spectrometry (ASMS), native electrospray ionization mass spectrometry (nESI-MS) and nuclear magnetic resonance (NMR) may be used as several complementary approaches to ascertain compound binding to RNA. The latter techniques utilize MS to measure mass of bound compound alone (ASMS), or mass of RNA and bound compound (nESI-MS). The nESI-MS and NMR studies may be conducted to provide direct analytical quantification of resulting complex via measurement of mass (nESI-MS) or chemical shifts (NMR). The ASMS experiment is conducted to determine saturation binding of the compound to RNA where resulting apparent binding constants (KD,App) may be generated. Further descriptions of the functional and binding assays are provided in the section below.
# (§2) In principle, samples are loaded to the instrument where electrophoresis separates component RNA's on the basis of mass, and subsequently analyzes these optically as they travel through the capillary.
# (§3) RNA samples were diluted to the appropriate concentration to fall within the linear range of detection for the RNA ScreenTape Assay. Model Chi18 or FgenL RNAs were diluted to 50 ng/μL in 50 mM CAPS buffer pH 11. Amino acid stocks were made up in 50 mM CAPS pH 11 and re-adjusted to >pH 11 after solubilization. […] The samples were aliquoted to PCR tubes for each time point (Time 0 or 15 minutes). Degradation reaction: Samples were incubated at 50° C. for 0 to 15 minutes in a thermocycler, removed at the appropriate time point and placed on ice. Time 0 samples remained on ice.
# FgenL model RNA [2] = test: TapeStation Assay, FgenL model RNA; set-up: Conc. FgenL#1 / Conc. FgenL#2: unit not given here; settings: for % Control N = 1 / % Control N = 2 / % Control Average: FgenL RNA, 20 mM amino acids, 50 mM CAPS pH 11, 50° C. 15 min; for % Control N = 1 / % Control N = 2: vs Time 0; for % Control Average: vs Time 0, Avg N=2; for Conc. FgenL#1 / Conc. FgenL#2: intact FgenL RNA after 15 min at 50° C.; for Conc. FgenL#1: 20 mM amino acids in 50 mM CAPS pH 11, run #1; for Conc. FgenL#2: 20 mM amino acids in 50 mM CAPS pH 11, run #2
# Protocol: as §1, §2, §3
# FgenL model RNA [3] = settings: percent protection, pH 11.0, 44° C., 16 hours, n = 2
# Protocol: (§4) The ddPCR assays measure RNA integrity by converting intact RNA to cDNA by reverse transcription, then performing digital PCR in thousands of nanoliter-sized droplets for each sample. PCR is performed within each droplet, which allows for more sensitive detection of subtle changes in RNA concentration compared to traditional PCR or qPCR. Additionally, primers/probes specific to the 5′ end of the RNA/cDNA transcript(s) are used to assess fragment integrity—e.g. degraded RNA will have fewer 5′ positive droplets. The BioRad QX200 Droplet Digital PCR System was used for the ddPCR workflow.
# (§5) Basic assay procedure: RNA samples (Chi18 or FgenL fragments) were diluted to 25 fg/μL or 10 fg/μL, respectively, in 50 mM […] buffer pH 11.0. Amino acid stocks were made up in 50 mM CAPS buffer, pH 11.0 and subsequently re-adjusted to pH 11.0, post solubilization. Amino acid stocks were tested in a dose-response format to determine EC50. An amino acid dilution plate containing a ˜300 mM (or appropriate) top-concentration of amino acid in 50 mM CAPS buffer was serially (half-log) diluted for 10 times. 0.6 μL of this compound dilution plate was spotted into a 96-well PCR plate (Thermo). Sample RNAs were added (6 μL) and incubated with test amino acid as described below.
# (§6) Degradation reaction: Treated RNAs were incubated for 16 hours at 30° C. for Chi18 samples or 44° C. for FgenL samples. Upon completion of the degradation reaction, cDNA was made from the intact RNA by Reverse Transcription and ddPCR run for each sample (96 well plates). Positive 5′ droplet values were divided by the total accepted droplet values for each sample and a ratio value generated for each sample.
# (§7) EC50 was determined by using a four parameter logistic equation: Y=A+((B−A)/(1+(C/X)D)); where Y is percent protection, X is compound concentration, A and B are minimum and maximum asymptotes, respectively, C is EC50, and D is Hill slope.
# Chi18 model RNA [4] = test: Droplet Digital Polymerase Chain Reaction (ddPCR) Assay, Chi18; settings: percent protection, pH 11.0, 30° C., 16 hours, n = 2
# Protocol: as §4, §5, §6, §7
# [5] = intact Chi18 RNA after 15 min at 50° C.
SMILES,% Control N = 1 (Chi18 model RNA [1]),% Control N = 2 (Chi18 model RNA [1]),% Control Avg. (Chi18 model RNA [1]),Conc. chi18#1 (Chi18 model RNA [1]; [5]),% Control N = 1 (FgenL model RNA [2]),% Control N = 2 (FgenL model RNA [2]),% Control Average (FgenL model RNA [2]),Conc. FgenL#1 (FgenL model RNA [2]),Conc. FgenL#2 (FgenL model RNA [2]),EC50 (FgenL model RNA [3]),EC50 (Chi18 model RNA [4]),"Conc. chi18#2 (Chi18 model RNA [1]; intact Chi18 RNA after 15 min at 50° C., 20 mM amino acids in 50 mM CAPS pH 11, run #2)"
"O=C(O)CCP(CCC(=O)O)CCC(=O)O [TCEP, tris(2-carboxyethyl)phosphine]",2.6%,2.6%,2.6%,1.41,5.0%,4.0%,4.5%,1.71,1.38,> 30 mM,> 30 mM,–
N[C@@H](CSSC[C@H](N)C(=O)O)C(=O)O [Cystine],53.1%,42.7%,47.9%,28.3,75.9%,64.6%,70.2%,26.2,22.4,> 30 mM,> 29 mM,22.6
"O[C@H](CS)[C@H](O)CS (racemic) [DTT, dithiothreitol]",10.7%,10.7%,10.7%,5.68,8.3%,9.0%,8.7%,2.86,3.13,–,–,–
